Measurements published in patent US20240050403A1, “THERAPY OF POST-OPERATIVE EMESIS WITH AMISULPRIDE” (Acacia Pharma Limited, priority 2016, published 2024).
Values joined by “and” are separate entries in the source; they are usually repeats but may differ in a detail not shown here. Equal entries are not always repeated.

Columns and labels:
Format in all cases: in vivo, human
[1] = tested on: adult surgical patients; test: Phase II clinical trial, multi-centre, double-blind, randomised, placebo-controlled, PONV incidence
Protocol: In a multi-centre, double-blind, randomised, placebo-controlled Phase II clinical trial in adult surgical patients (conducted by the applicant), administration of amisulpride at 5 mg was associated with a PONV incidence of 40%, compared to 69% with placebo (p<0.01).

[2] = tested on: adult surgical patients; test: Two Phase III clinical trials, multi-centre, double-blind, randomised, placebo-controlled, PONV incidence
Protocol: In two multi-centre, double-blind, randomised, placebo-controlled Phase III clinical trials involving 626 evaluable, adult surgical patients (again conducted by the applicant), administration of amisulpride at 5 mg was associated with a PONV incidence of 48%, compared to 59% with placebo (p<0.01).

[3] = tested on: adult, surgical patients at high risk of PONV; test: Study 1: Phase III study of amisulpride as combination prophylaxis against PONV in high-risk patients
Protocol: A randomised, double-blind, placebo-controlled Phase Ill study of amisulpride as combination prophylaxis against post-operative nausea and vomiting in high-risk patients was conducted. The primary aim of the study was to assess the efficacy of amisulpride at 5 mg in the prevention of post-operative nausea and vomiting (PONV) in adult, surgical patients at high risk of PONV. The amisulpride was administered in combination with a standard anti-emetic.
The subjects of the study were 1204 randomised adult patients ([…]) at high risk of PONV who were undergoing elective ambulatory (day-case) or in-patient surgery under general inhalational anaesthesia for an expected duration of at least one hour from induction of anaesthesia to extubation. Of the 1204 randomised patients, 1147 were dosed and eligible.
High risk of PONV was defined as having at least three of the following risk factors: • Past history of PONV and/or motion sickness • Habitual non-smoking status • Female • Expected use of post-operative opioid analgesia
5 mg amisulpride was administered as a single, slow, intravenous (IV) push over one minute at the time of induction of anaesthesia; given in combination with a standard anti-emetic. Examples of standard anti-emetics used were ondansetron, granisetron and dexamethasone.
The two arms of the study were as follows: • Arm 1: amisulpride IV at 5 mg in combination with a standard anti-emetic which is not a dopamine D2-antagonist (e.g. ondansetron IV at 4 mg, granisetron IV at 1 mg, or dexamethasone IV at 4 mg); • Arm 2 (control): amisulpride IV placebo in combination with a standard anti-emetic, as defined above • The primary efficacy variable was the absence or presence of PONV during the 24-hour post-operative period, where PONV was defined as the occurrence of one or more emetic episodes (vomiting and/or retching) or the receipt of one or more doses of rescue anti-emetic medication. Absence of PONV by this definition was termed “Complete Response” (CR). A number of secondary variables were evaluated including the occurrence of emesis (vomiting and/or retching).
A comparison of the incidence of CR in the 0-24-hour period after surgery between the amisulpride group and the placebo group using Pearson's x2 test with Yates's continuity correction at a one-sided significance level of 2.5%. The primary efficacy analysis population was the modified intent-to-treat (mITT) population.
Secondary efficacy variables assessed by incidence (e.g., emesis) were compared between the groups using Pearson's x2 test.

CCN1CCCC1CNC(=O)c1cc(S(=O)(=O)CC)c(N)cc1OC (racemic) [Amisulpride, amisulpride]
PONV incidence ([1]; amisulpride at 5 mg, placebo 69% (p<0.01)): 40%
adverse events, laboratory or ECG abnormalities versus placebo ([1]; amisulpride versus placebo): no difference in the nature, incidence or severity of adverse events, or of laboratory or ECG abnormalities
PONV incidence ([2]; amisulpride at 5 mg, 626 evaluable patients, placebo 59% (p<0.01)): 48%
safety profile versus placebo ([2]; amisulpride versus placebo): no significant difference between the safety profiles
transient increases in serum prolactin levels ([2]; amisulpride versus placebo): more common with amisulpride
Calculated RRR (relative risk reduction) of post-operative emesis ([3]; 5 mg IV plus a standard anti-emetic versus placebo plus standard anti-emetic): 30.94%
Calculated RRR (relative risk reduction) of PONV ([3]; 5 mg IV plus a standard anti-emetic versus placebo plus standard anti-emetic, 24 hour period): 20.8% and 20.76%
Calculated RRR (relative risk reduction) of post-operative emesis ([3]; 5 mg IV plus a standard anti-emetic versus placebo plus standard anti-emetic, listed as amisulpride): 31%
Difference in PONV rate (improvement in CR rate) versus placebo plus standard anti-emetic ([3]; 5 mg IV plus a standard anti-emetic, 24 hour period, mITT, p<0.001): 11.08%
Number of patients with PONV ([3]; 5 mg IV plus a standard anti-emetic, 24 hour period, of 572 patients): 242
Number of patients with CR (complete response) ([3]; 5 mg IV plus a standard anti-emetic, 24 hour period, of 572 patients (mITT)): 330
% patients with PONV ([3]; 5 mg IV plus a standard anti-emetic, 24 hour period, placebo plus standard anti-emetic 53.39): 42.31%
Number of patients with post-operative emesis (vomiting and/or retching) ([3]; 5 mg IV plus a standard anti-emetic, of 572 patients): 79
Difference in post-operative emesis rate versus placebo plus standard anti-emetic ([3]; 5 mg IV plus a standard anti-emetic, p=0.003): 6.19%
% patients with post-operative emesis (vomiting and/or retching) ([3]; 5 mg IV plus a standard anti-emetic, placebo plus standard anti-emetic 20.00): 13.81%
